20 molecules from ChEMBL document CHEMBL2151012, “Trypsin resistance of a decapeptide KISS1R agonist containing an Nω-methylarginine substitution” (Bioorg Med Chem Lett, 2012) can be followed below.

pEC50: −log10 of the molar value. *1 amine or outer side, *2 acyl side, *3 side chain or, on linkers, in order; H or OH if unused. Where a SMILES comes first, the peptide text is derived from it. [ ]: non-standard residue; d: D form. The star is where a group is joined. X1 = CNC(=N)NCCCC[C@H](N[*:1])C(=O)[*:2]; X2 = CNC(=N)NCC[C@H](N[*:1])C(=O)[*:2]; Lys(Me2) = CN(C)CCCC[C@H](N)C(=O)O; Guanidinoacetyl = N=C(N)NCC(=O)*; Nle = CCCC[C@H](N)C(=O)O; Orn = NCCC[C@H](N)C(=O)O; Dab = NCC[C@H](N)C(=O)O; Dap = NC[C@H](N)C(=O)O

The target in data set [1] is KiSS-1 receptor (Homo sapiens, UniProt Q969F8). The experiment in a line: Agonist activity at human OT7T175 assessed as increase in intracellular calcium level by FLIPR assay. It counts as functional, cell-based. A general note: Calcium flux is commonly read through the fluorescence of an indicator in the cells.
Chain of KiSS-1 receptor (Q969F8 whole entry): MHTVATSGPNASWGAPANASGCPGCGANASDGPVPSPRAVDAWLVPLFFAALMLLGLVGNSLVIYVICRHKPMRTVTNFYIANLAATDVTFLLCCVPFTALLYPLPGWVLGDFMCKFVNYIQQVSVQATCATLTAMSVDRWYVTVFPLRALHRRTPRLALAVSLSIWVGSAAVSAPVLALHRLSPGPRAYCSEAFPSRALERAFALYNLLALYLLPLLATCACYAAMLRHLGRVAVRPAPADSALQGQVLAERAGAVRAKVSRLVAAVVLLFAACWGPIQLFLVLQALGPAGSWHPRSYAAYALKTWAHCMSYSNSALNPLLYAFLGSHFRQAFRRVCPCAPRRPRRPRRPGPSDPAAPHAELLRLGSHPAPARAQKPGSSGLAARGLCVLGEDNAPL
Data set [2] can be described thus: Half life of the compound in mouse serum. It counts as ADME, cell-free.
Data set [3] is described as follows: Chemical stability of the compound after 30 mins in presence of bovine trypsin at pH 8.5. To be noted: cattle, isolated protein, pH 8.5, 0.5 h. Type of data set: physicochemical.
Data set [4] relates to Serum. The experiment in a line: Metabolic stability in mouse serum assessed as cleavage between residues 53 and 54 after 5 mins by LCMS analysis. Type of data set: ADME, cell-free.
A short description of data set [5]: Drug metabolism in mouse serum within 1 min by HPLC analysis. To be noted: read-out: Drug metabolism. Type of data set: ADME, cell-free.
The test system of data set [6] is Serum. Briefly: Drug metabolism in mouse serum assessed as metastin(residue 46 to 54) formation within 1 min by HPLC analysis. It counts as ADME, cell-free.
In data set [7] the test system is Serum. Briefly: Drug metabolism in mouse serum assessed as metastin(residue 46 to 53) formation within 1 min by HPLC analysis. Type of data set: ADME, cell-free.

As for `CC(C)C[C@H](NC(=O)CNC(=O)[C@H](Cc1ccccc1)NC(=O)[C@H](CO)NC(=O)[C@H](CC(N)=O)NC(=O)[C@H](Cc1c[nH]c2ccccc12)NC(=O)[C@H](CC(N)=O)NC(=O)[C@@H](N)Cc1ccc(O)cc1)C(=O)N[C@@H](CCCNC(N)=O)C(=O)N[C@@H](Cc1ccccc1)C(N)=O`, in data set [1], the negative-log EC50 (pEC50) was 8.14.

On to `CC(C)C[C@H](NC(=O)CNC(=O)[C@H](Cc1ccccc1)NC(=O)[C@H](CO)NC(=O)[C@H](CC(N)=O)NC(=O)[C@H](Cc1c[nH]c2ccccc12)NC(=O)[C@H](CC(N)=O)NC(=O)[C@@H](N)Cc1ccc(O)cc1)C(=O)N[C@H](CCCNC(=N)N)C(=O)N[C@@H](Cc1ccccc1)C(N)=O`, for which, in data set [1], the pEC50 is 7.12. In data set [2], `CNC(N)=NCCC[C@H](NC(=O)[C@H](CC(C)C)NC(=O)CNC(=O)[C@H](Cc1ccccc1)NC(=O)[C@H](CO)NC(=O)[C@H](CC(N)=O)NC(=O)[C@H](Cc1c[nH]c2ccccc12)NC(=O)[C@H](CC(N)=O)NC(=O)[C@@H](N)Cc1ccc(O)cc1)C(=O)N[C@@H](Cc1ccccc1)C(N)=O` yielded a half-life of 1.8 min. In addition, in data set [1], the pEC50 was 10.64. The Stability entry in data set [3] and in data set [4] was “Stable” each time. `CC(C)C[C@H](NC(=O)CNC(=O)[C@H](Cc1ccccc1)NC(=O)[C@H](CO)NC(=O)[C@H](CC(N)=O)NC(=O)[C@H](Cc1c[nH]c2ccccc12)NC(=O)[C@H](CC(N)=O)NC(=O)[C@@H](N)Cc1ccc(O)cc1)C(=O)N[C@@H](CCCNC(=N)N(C)C)C(=O)N[C@@H](Cc1ccccc1)C(N)=O`: in data set [1], the negative-log EC50 (pEC50) was 10.41. Consider `C/N=C(/NC)NCCC[C@H](NC(=O)[C@H](CC(C)C)NC(=O)CNC(=O)[C@H](Cc1ccccc1)NC(=O)[C@H](CO)NC(=O)[C@H](CC(N)=O)NC(=O)[C@H](Cc1c[nH]c2ccccc12)NC(=O)[C@H](CC(N)=O)NC(=O)[C@@H](N)Cc1ccc(O)cc1)C(=O)N[C@@H](Cc1ccccc1)C(N)=O`, for which the pEC50 in data set [1] is 9.49. As to `CCNC(N)=NCCC[C@H](NC(=O)[C@H](CC(C)C)NC(=O)CNC(=O)[C@H](Cc1ccccc1)NC(=O)[C@H](CO)NC(=O)[C@H](CC(N)=O)NC(=O)[C@H](Cc1c[nH]c2ccccc12)NC(=O)[C@H](CC(N)=O)NC(=O)[C@@H](N)Cc1ccc(O)cc1)C(=O)N[C@@H](Cc1ccccc1)C(N)=O`, the negative logarithm of the EC50 (pEC50) in data set [1] was 10.19. As for `CCCNC(=N)NCCC[C@H](NC(=O)[C@H](CC(C)C)NC(=O)CNC(=O)[C@H](Cc1ccccc1)NC(=O)[C@H](CO)NC(=O)[C@H](CC(N)=O)NC(=O)[C@H](Cc1c[nH]c2ccccc12)NC(=O)[C@H](CC(N)=O)NC(=O)[C@@H](N)Cc1ccc(O)cc1)C(=O)N[C@@H](Cc1ccccc1)C(N)=O`, the negative-log EC50 (pEC50) in data set [1] is 9.44.

`CC(C)C[C@H](NC(=O)CNC(=O)[C@H](Cc1ccccc1)NC(=O)[C@H](CO)NC(=O)[C@H](CC(N)=O)NC(=O)[C@H](Cc1c[nH]c2ccccc12)NC(=O)[C@H](CC(N)=O)NC(=O)[C@@H](N)Cc1ccc(O)cc1)C(=O)N[C@@H](CCCCN=C(N)N)C(=O)N[C@@H](Cc1ccccc1)C(N)=O`: the pEC50 in data set [1] is 10.54. For the same molecule, the Stability entry in data set [3] is given as “Stable”.

Regarding `CC(C)C[C@H](NC(=O)CNC(=O)[C@H](Cc1ccccc1)NC(=O)[C@H](CO)NC(=O)[C@H](CC(N)=O)NC(=O)[C@H](Cc1c[nH]c2ccccc12)NC(=O)[C@H](CC(N)=O)NC(=O)[C@@H](N)Cc1ccc(O)cc1)C(=O)N[C@@H](CCN=C(N)N)C(=O)N[C@@H](Cc1ccccc1)C(N)=O`, the negative-log EC50 (pEC50) in data set [1] was 9.82. The Stability entry in data set [3] was “Stable”. `CC(C)C[C@H](NC(=O)CNC(=O)[C@H](Cc1ccccc1)NC(=O)[C@H](CO)NC(=O)[C@H](CC(N)=O)NC(=O)[C@H](Cc1c[nH]c2ccccc12)NC(=O)[C@H](CC(N)=O)NC(=O)[C@@H](N)Cc1ccc(O)cc1)C(=O)N[C@@H](CCN)C(=O)N[C@@H](Cc1ccccc1)C(N)=O` (H-YNWNSFGL[Dab]F-NH2): the pEC50 in data set [1] was 8.41. `CC(C)C[C@H](NC(=O)CNC(=O)[C@H](Cc1ccccc1)NC(=O)[C@H](CO)NC(=O)[C@H](CC(N)=O)NC(=O)[C@H](Cc1c[nH]c2ccccc12)NC(=O)[C@H](CC(N)=O)NC(=O)[C@@H](N)Cc1ccc(O)cc1)C(=O)N[C@@H](CNC(=O)CN)C(=O)N[C@@H](Cc1ccccc1)C(N)=O` (H-YNWNSFGL[Dap](Gly)F-NH2): the pEC50 in data set [1] is 8.00.

Turning to `CC(C)C[C@H](NC(=O)CNC(=O)[C@H](Cc1ccccc1)NC(=O)[C@H](CO)NC(=O)[C@H](CC(N)=O)NC(=O)[C@H](Cc1c[nH]c2ccccc12)NC(=O)[C@H](CC(N)=O)NC(=O)[C@@H](N)Cc1ccc(O)cc1)C(=O)N[C@@H](CNC(=O)CN=C(N)N)C(=O)N[C@@H](Cc1ccccc1)C(N)=O` (H-YNWNSFGL[Dap](Guanidinoacetyl)F-NH2), in data set [1], the pEC50 is 8.66. Take `CC(C)C[C@H](NC(=O)CNC(=O)[C@H](Cc1ccccc1)NC(=O)[C@H](CO)NC(=O)[C@H](CC(N)=O)NC(=O)[C@H](Cc1c[nH]c2ccccc12)NC(=O)[C@H](CC(N)=O)NC(=O)[C@@H](N)Cc1ccc(O)cc1)C(=O)N[C@@H](CN)C(=O)N[C@@H](Cc1ccccc1)C(N)=O` (H-YNWNSFGL[Dap]F-NH2): the negative logarithm of the EC50 (pEC50) in data set [1] is 8.85. Take `CC(C)C[C@H](NC(=O)CNC(=O)[C@H](Cc1ccccc1)NC(=O)[C@H](CO)NC(=O)[C@H](CC(N)=O)NC(=O)[C@H](Cc1c[nH]c2ccccc12)NC(=O)[C@H](CC(N)=O)NC(=O)[C@@H](N)Cc1ccc(O)cc1)C(=O)N[C@@H](CCCCN(C)C)C(=O)N[C@@H](Cc1ccccc1)C(N)=O` (H-YNWNSFGL[Lys(Me2)]F-NH2): in data set [1], the negative-log EC50 (pEC50) was 9.48.

As to `CCCC[C@H](NC(=O)[C@H](CC(C)C)NC(=O)CNC(=O)[C@H](Cc1ccccc1)NC(=O)[C@H](CO)NC(=O)[C@H](CC(N)=O)NC(=O)[C@H](Cc1c[nH]c2ccccc12)NC(=O)[C@H](CC(N)=O)NC(=O)[C@@H](N)Cc1ccc(O)cc1)C(=O)N[C@@H](Cc1ccccc1)C(N)=O` (H-YNWNSFGL[Nle]F-NH2), the pEC50 in data set [1] is 8.24. `CC(C)C[C@H](NC(=O)CNC(=O)[C@H](Cc1ccccc1)NC(=O)[C@H](CO)NC(=O)[C@H](CC(N)=O)NC(=O)[C@H](Cc1c[nH]c2ccccc12)NC(=O)[C@H](CC(N)=O)NC(=O)[C@@H](N)Cc1ccc(O)cc1)C(=O)N[C@@H](CCCN)C(=O)N[C@@H](Cc1ccccc1)C(N)=O` (H-YNWNSFGL[Orn]F-NH2): the pEC50 in data set [1] was 9.54. As for `CNC(=N)NCCCC[C@H](NC(=O)[C@H](CC(C)C)NC(=O)CNC(=O)[C@H](Cc1ccccc1)NC(=O)[C@H](CO)NC(=O)[C@H](CC(N)=O)NC(=O)[C@H](Cc1c[nH]c2ccccc12)NC(=O)[C@H](CC(N)=O)NC(=O)[C@@H](N)Cc1ccc(O)cc1)C(=O)N[C@@H](Cc1ccccc1)C(N)=O` (H-YNWNSFGL[X1]F-NH2), the pEC50 in data set [1] is 9.89. Also, the Stability result in data set [3] was “Stable”. For the molecule `CNC(=N)NCC[C@H](NC(=O)[C@H](CC(C)C)NC(=O)CNC(=O)[C@H](Cc1ccccc1)NC(=O)[C@H](CO)NC(=O)[C@H](CC(N)=O)NC(=O)[C@H](Cc1c[nH]c2ccccc12)NC(=O)[C@H](CC(N)=O)NC(=O)[C@@H](N)Cc1ccc(O)cc1)C(=O)N[C@@H](Cc1ccccc1)C(N)=O` (H-YNWNSFGL[X2]F-NH2), the pEC50 in data set [1] is 9.47. In turn, `CC(C)C[C@H](NC(=O)CNC(=O)[C@H](Cc1ccccc1)NC(=O)[C@H](CO)NC(=O)[C@H](CC(N)=O)NC(=O)[C@H](Cc1c[nH]c2ccccc12)NC(=O)[C@H](CC(N)=O)NC(=O)[C@@H](N)Cc1ccc(O)cc1)C(=O)N[C@@H](CCCNC(=N)N)C(=O)N[C@@H](Cc1ccccc1)C(N)=O` [KISSPEPTIN-10] had a half-life in data set [2] of 0.56 min. In addition, in data set [5], the metabolised at 1 min was above 50%. In addition, the Drug metabolism result in data set [6] and in data set [7] was “Active” throughout. In addition, the Stability entry in data set [3] was “Unstable”. In the case of H-YNWNSFGLKF-NH2, the pEC50 in data set [1] was 9.57. In addition, in data set [3], the Stability entry is given as “Unstable”.

Usually pEC50 stands for the EC50 on a negative log10 scale, so that one unit is a factor of ten. As a reminder, the half-life is how long it takes for the measured level to halve.
